Laboratory results as given in patent US20230382926A1, “COMPOUNDS AND USES THEREOF” (The University of The West Indies, priority 2022, published 2023).

Key:
Assay in all cases: Rescue concentration, modified checkerboard MIC adjuvant assay
Assay type in all cases: cell-based
[1] = test system: Acinetobacter baumannii clinical isolate 9978; details: A. baumannii clinical isolate 9978
Protocol: (§1) Reference microorganisms as well as clinical strains used to evaluate the antimicrobial adjuvant properties of SP-6azaBIM 125 and SP-6azaBIM 136 are listed in Table 3. Clinical strains of bacteria were kindly provided by the Faculty of Medical Sciences, UWI, St. Augustine, Trinidad. All bacterial cultures were cryopreserved in 30% glycerol/Brain Heart Infusion (BHI) at −80° C. Cultures were revived on BHI agar (Oxoid Ltd, England) and maintained at 4° C. until needed.
(§2) Prior to each experiment, cultures were streaked onto clean BHI agar plates and incubated at 35° C. for 24 hours. Colonies of the respective cultures were selected and inoculated in phosphate buffer saline (pH 7.5) to a 0.5 McFarland turbidity standard (equivalent to 10^8 CFU mL^−1). For inhibitory studies the bacterial suspensions were diluted 1:100 in cation-adjusted Mueller Hinton Broth (ca-MHB) (Oxoid Ltd, England). Fastidious bacteria including Streptococcus pneumoniae, Haemophilus infuenzae and Clostridium difficile were maintained on BHI agar with 5% defibrinated sheep blood and diluted in ca-MHB with 5% defibrinated sheep blood.
(§3) Antibiotic powders used in this study were purchased from Sigma Aldrich Ltd. (WI, USA). Antibiotic stock solutions were made at 50 mg mL^−1 according to Andrews (2001) and working solutions were prepared 24 h before use and stored at 4° C.
(§4) HCl salts of the of the SP-azaBIM test compounds were prepared prior to testing and stored at 4° C. Working preparations of each compound were made to 1 mg/mL in sterile deionised water.
(§5) The antibiotic adjuvant activity of the SPazaBIMs were evaluated in combination with representative antibiotics (representing 13 antibiotic classes) against the 19 pathogens strains listed in Table 3. To assess the adjuvant properties of the SP-azaBIM molecules, a modified checkerboard minimum inhibitory concentration assay was used. A fixed concentration of the respective antibiotic (susceptible breakpoint concentration) was mixed with a twofold dilution series of the test SP-azaBIM (FIG. 1). This was to determine the concentration of SP-azaBIM needed potentiate the antibiotic at a clinically susceptible breakpoint concentration. Antibiotic susceptible breakpoint concentrations for the respective bacteria were determined using Clinical Laboratory Standards Institute (CLSI) criteria M100 ED31.
(§6) In this study, only those antibiotics to which the bacterial was classed as resistant were included in the adjuvant assays. In this assay we recorded the rescue concentration of the SP-BIM for a respective antibiotic. The rescue concentration was defined as the concentration of the adjuvant that reduces the minimum inhibitory concentration (MIC) of an antibiotic to the susceptibility breakpoint.
(§7) Immediately prior to testing, the respective antibiotic and SP-azaBIM was dissolved in sterile deionised water at 20× the required test concentration. Each microtiter well was then inoculated with 180 μl of bacterial inoculum of 10^6 CFU/ml in ca-MHB, and 10 μl each if the antibiotic and SP-azaBIM was added to the plates. These plates were then incubated at 35° C. for 24 h under aerobic conditions. A similar method was followed for the fastidious pathogens except that they were cultured in ca-MHB with 5% sheep blood and 5% CO2.
(§8) Bacterial growth was visually inspected after the incubation period and the rescue concentration of the test SP-azaBIM was determined as the lowest concentration of the compound needed to reduce bacterial growth by 99.99% at the susceptible breakpoint concentration of the antibiotic. For example, CLSI states that Pseudomonas aeruginosa is susceptible to the Imipenem if the MIC is ≤2 μg mL^−1. If the bacteria can tolerate this concentration in vitro, then the bacteria has an intermediate or absolute resistance toward that antibiotic. […]

[2] = test system: Enterococcus faecalis ATCC 51299; details: E. faecalis ATCC 51299
Protocol: as §1, §2, §3, §4, §5, §6, §7, §8

[3] = test system: Escherichia coli ATCC 35150; details: E. coli ATCC 35150
Protocol: as §1, §2, §3, §4, §5, §6, §7, §8

[4] = test system: Klebsiella pneumoniae ATCC 49472; details: K. pneumoniae ATCC 49472
Protocol: as §1, §2, §3, §4, §5, §6, §7, §8

[5] = test system: Klebsiella pneumoniae ATCC BAA-2814; details: K. pneumoniae ATCC BAA-2814
Protocol: as §1, §2, §3, §4, §5, §6, §7, §8

[6] = test system: Staphylococcus aureus ATCC BAA-2312; details: S. aureus ATCC BAA-2312
Protocol: as §1, §2, §3, §4, §5, §6, §7, §8

[7] = test system: Stenotrophomonas maltophilia MDR 7785; details: S. maltophilia MDR 7785
Protocol: as §1, §2, §3, §4, §5, §6, §7, §8

[8] = test system: Streptococcus pneumoniae ATCC 49619; details: S. pneumoniae ATCC 49619
Protocol: as §1, §2, §3, §4, §5, §6, §7, §8

[9] = Amox at susceptible breakpoint 8 μg mL^−1
[10] = Cef at susceptible breakpoint 8 μg mL^−1
[11] = Gen at susceptible breakpoint 4 μg mL^−1
[12] = Imi at susceptible breakpoint 2 μg mL^−1
[13] = Mero at susceptible breakpoint 2 μg mL^−1
[14] = Amp at susceptible breakpoint 8 μg mL^−1
[15] = Chl at susceptible breakpoint 8 μg mL^−1
[16] = Dox at susceptible breakpoint 4 μg mL^−1
[17] = Tri at susceptible breakpoint 8 μg mL^−1
[18] = Imi at susceptible breakpoint 1 μg mL^−1
[19] = Col at susceptible breakpoint 8 μg mL^−1
[20] = Ceph at susceptible breakpoint 8 μg mL^−1

Oc1ccc(C(c2c[nH]c3ncccc23)c2c[nH]c3ncccc23)cc1 [SP-7azaBIM 135, 4-(bis(1H-pyrrolo[2,3-b]pyridin-3-yl)methyl)phenol]
Rescue concentration, Amox (8) [1, 9]: >127 µg/mL
Rescue concentration, Cef (8) [1, 10]: >128 µg/mL
Rescue concentration, Col (2) ([1]; Col at susceptible breakpoint 2 μg mL^−1): >128 µg/mL
Rescue concentration, Gen (4) [1, 11]: >128 µg/mL
Rescue concentration, Imi (2) [1, 12]: >128 µg/mL
Rescue concentration, Mero (2) [1, 13]: >128 µg/mL
Rescue concentration, Pol B (2) ([1]; Pol B at susceptible breakpoint 2 μg mL^−1): >128 µg/mL
Rescue concentration, Amp (8) [2, 14]: >128 µg/mL
Rescue concentration, Chl (8) [2, 15]: >128 µg/mL
Rescue concentration, Dox (4) [2, 16]: >128 µg/mL
Rescue concentration, Ery (0.5) ([2]; Ery at susceptible breakpoint 0.5 μg mL^−1): >128 µg/mL
Rescue concentration, Tri (8) [2, 17]: >128 µg/mL
Rescue concentration, Van (4) ([2]; Van at susceptible breakpoint 4 μg mL^−1): >128 µg/mL
Rescue concentration, Amp (8) [3, 14]: >128 µg/mL
Rescue concentration, Cip (0.25) ([3]; Cip at susceptible breakpoint 0.25 μg mL^−1): >128 µg/mL
Rescue concentration, Dox (4) [3, 16]: >128 µg/mL
Rescue concentration, Gen (4) [3, 11]: >128 µg/mL
Rescue concentration, Imi (1) [3, 18]: 64 µg/mL
Rescue concentration, Amox (8) [4, 9]: >128 µg/mL
Rescue concentration, Amp (8) [4, 14]: >128 µg/mL
Rescue concentration, Col (8) [4, 19]: >128 µg/mL
Rescue concentration, Imi (1) [4, 18]: >128 µg/mL
Rescue concentration, Mero (1) ([4]; Mero at susceptible breakpoint 1 μg mL^−1): >128 µg/mL
Rescue concentration, Pol B (8) ([4]; Pol B at susceptible breakpoint 8 μg mL^−1): >128 µg/mL
Rescue concentration, Amox (8) [5, 9]: >128 µg/mL
Rescue concentration, Amp (8) [5, 14]: >128 µg/mL
Rescue concentration, Aze (4) ([5]; Aze at susceptible breakpoint 4 μg mL^−1): >128 µg/mL
Rescue concentration, Azi (16) ([5]; Azi at susceptible breakpoint 16 μg mL^−1): >128 µg/mL
Rescue concentration, Cef (16) ([5]; Cef at susceptible breakpoint 16 μg mL^−1): >128 µg/mL
Rescue concentration, Ceph (8) [5, 20]: >128 µg/mL
Rescue concentration, Chl (8) [5, 15]: >128 µg/mL
Rescue concentration, Col (8) [5, 19]: >128 µg/mL
Rescue concentration, Dox (4) [5, 16]: >128 µg/mL
Rescue concentration, Gen (4) [5, 11]: >128 µg/mL
Rescue concentration, Imi (1) [5, 18]: >128 µg/mL
Rescue concentration, Tet (4) ([5]; Tet at susceptible breakpoint 4 μg mL^−1): >128 µg/mL
Rescue concentration, Azi (2) ([6]; Azi at susceptible breakpoint 2 μg mL^−1): >128 µg/mL
Rescue concentration, Gen (4) [6, 11]: >128 µg/mL
Rescue concentration, Pen (0.12) ([6]; Pen at susceptible breakpoint 0.12 μg mL^−1): >128 µg/mL
Rescue concentration, Tri (8) [6, 17]: >128 µg/mL
Rescue concentration, Van (2) ([6]; Van at susceptible breakpoint 2 μg mL^−1): >128 µg/mL
Rescue concentration, Cef (8) [7, 10]: >128 µg/mL
Rescue concentration, Ceph (8) [7, 20]: >128 µg/mL
Rescue concentration, Chl (8) [7, 15]: >128 µg/mL
Rescue concentration, Cip (2) ([7]; Cip at susceptible breakpoint 2 μg mL^−1): >128 µg/mL
Rescue concentration, Gen (4) [7, 11]: >128 µg/mL
Rescue concentration, Imi (2) [7, 12]: >128 µg/mL
Rescue concentration, Mero (2) [7, 13]: >128 µg/mL
Rescue concentration, Tri (2) ([7]; Tri at susceptible breakpoint 2 μg mL^−1): >128 µg/mL
Rescue concentration, Amox (2) ([8]; Amox at susceptible breakpoint 2 μg mL^−1): >128 µg/mL
Rescue concentration, Ery (0.25) ([8]; Ery at susceptible breakpoint 0.25 μg mL^−1): >128 µg/mL
Rescue concentration, Imi (0.12) ([8]; Imi at susceptible breakpoint 0.12 μg mL^−1): >128 µg/mL
